Laboratory results published in patent US20020142982A1, “Method for regulating angiogenesis” (priority 1999, published 2002).

Tested on: HUVEC
Experiment: Adherens junction assembly in HUVEC, immunofluorescence of VE-cadherin and catenins
Assay type: cell-based, human
Conditions: 500 nM, 1 hour
Protocol: To investigate whether SPP regulates the formation of adherens junction in endothelial cells, HUVEC were plated at a density of 2×10^4 cells/em^2 for 2 days, starved in lipid-depleted medium and treated without (cont) or with SPP (500 nM for 1 hours). For these experiments, after treatment cells were washed with ice-cold PBS, fixed with 4% formaldehyde at room temperature or methanol at −20° C. for 15 minutes. In the case of formaldehyde fixation, cells were permeabilized with 0.2% TX-100. After washing with PBS, cells were stained with antibodies as follows: VE-cadherin ([…], Transduction Labs, San Diego, Calif.; 1 μg/mL, Santa Cruz Biotechnology, Inc., Santa Cruz, Calif.), α-catenin ([…], Transduction Labs), β-catenin (1.25 μg/mL, Transduction Labs; 0.4 μg/mL, Santa Cruz), γ-catenin ([…], Transduction Labs). The primary antibody staining was visualized with FITC-conjugated goat anti-rabbit or TRITC conjugated sheep anti-mouse (1:1000, Cappel, now owned by ICN, Costa Mesa, Calif.) for 30 minutes at room temperature, and imaged on a Zeiss Axiovert 100TV fluorescence microscope. […]

Compound: CCCCCCCCCCCCC/C=C/[C@@H](O)[C@@H](N)COP(=O)(O)O [SPP, sphingosine-1-phosphate]
- VE-cadherin, α-, β- and γ-catenin localization at cell-cell junctions: dramatically increased
